From patent US20230285498A1, “TREATMENTS FOR CANCERS HAVING KRAS MUTATIONS” (City of Hope, priority 2020, published 2023)
Like-named read-outs stand apart in the source and are kept apart here.

Assays:
SW1463 = test: Cell proliferation, colorectal G12C homozygous cell line; type: cell-based; details: Homo sapiens, SW1463, read-out: inhibition of proliferation
Source text: For this experiment the inventors chose SW837 and SW1463 colorectal cell line. The SW837 cell is heterozygous for the G12C mutation whereas the SW1463 is homozygous for the G12C mutation. A stable cell line expressing mKATE2 for Incucyte live cell imaging and analysis was generated.

SW1573 NSCLC cells = test: Mouse SW1573 xenograft; type: in vivo, Athymic nude nu/nu mice; details: sotorasib 10 mg/kg, adagrasib 10 mg/kg, carfilzomib 2 mg/kg; oral gavage twice a week; day 56
Protocol: Mouse xenograft studies. Athymic nude nu/nu mice were obtained from Charles River, Wilmington, Mass., and were acclimated for a week before beginning the experiment. All animal experiments were carried out in accordance with a protocol approved by the Institutional Animal Care and Use Committee (IACUC #16004). […] All 40 animals were injected with 1×10^6 SW1573 cells suspensions in 100 μl of PBS, subcutaneously into one flank of each mouse. At the same time, animals were randomized into treatment groups. Treatment was started 12 days after the SW1573 NSCLC cells implantation to see palpable tumor growth. Treatments were given to mice via oral gavage twice a week for 8 weeks. Animals were examined daily for signs of tumor growth. Tumors were measured in two dimensions using calipers and body weights were recorded. Photographs of animals were taken at day 1, day 7, day 14, day 21, day 28, day 35, day 42, day 49, and day 56 after treatment. Photographs of tumors were also taken at day 56 after treatment. At the end of the study, the mice were euthanized by CO2 asphyxiation followed by cervical dislocation. The tumor weights were compared between groups using an unpaired Student's t-test. A portion of the tumor was fixed in 10% buffered formaldehyde solution and paraffin-embedded for immuno-staining or was snap-frozen in liquid nitrogen for further molecular analysis such as western blotting.

[1] = test system: WNT2, CFTR and CCL2 expression in H23 cells; test: qPCR validation of RNAseq; type: cell-based
Protocol: The drug treatment what initiated at dose of 1 μM which was finally raised up to 7.5 μM. […] Further, using qPCR assay we validated the RNAseq data and observed more than 40 fold induction in expression of various genes such as WNT2, CFTR and CCl2. (FIGS. 17D-17F). Further the analysis also identified activation of MYC and E2F Target Hall Mark Pathways which may help H23 cells in withstanding drug toxicity (data not shown).
Quantitative real-time PCR and RNAseq: Quantitative real-time PCR (qPCR) reactions were performed using TaqMan Universal PCR Master Mix (Thermo Fisher Scientific, Waltham, Mass.) and analyzed by the Quant Studio? Real-time PCR system (Life Technologies, Grand Island, N.Y.). Total RNA isolation and on-column DNase digestion from cells were performed basing on the manufacturer's protocol RNeasy Plus Mini Kit (Qiagen Cat #: 74134). 1 ug of RNA was used to synthesize the cDNA according to the one step cDNA synthesis kit from QuantaBio (Cat #: 101414-106). TaqMan probes were purchased from ThermoFisher (Waltham, Mass.). The mRNA expression was analyzed using multiplex PCR for the gene of interest and GAPDH as a reference using two independent detection dyes FAM probes and VIC probes respectively. Relative mRNA expression was normalized to GAPDH signals and calculated using the delta Ct method.

H23 = test: Cell proliferation assay, 2D (IncuCyte live cell imaging); type: cell-based
Protocol: (§1) The cells grown in 2D cultures were treated with various concentrations of the drug, and the effect on cell proliferation was determined in real time using the live cell proliferation assay (IncuCyte, Essen Bioscience, Inc.) as described in the methods.
(§2) Cell proliferation and apoptosis assay: Cell proliferation assays were performed using cell lines stably transfected with NucLight Red Lentivirus (Essen BioScience) to accurately visualize and count the nucleus of a single cell. Cells were seeded on a 96-well plate and allowed to adhere for 24 h. Test compounds were added at indicated concentrations. Caspase-3/7 Green Apoptosis Reagent (Essen BioScience) was also added as a green fluorescent indicator of caspase3/7-mediated apoptotic activity. To monitor cell proliferation and apoptosis over time, the plate was placed in the IncuCyte S3 Live Cell Imaging System (Essen BioScience) and images were acquired every 2 hours. Data analysis was generated by the IncuCyte software using a red fluorescence mask to accurately count each cell nucleus and a green fluorescence mask to measure apoptosis over time. 3D spheroid assay 3D spheroid experiments were performed using cell lines stably transfected with NucLight Red Lentivirus (Essen BioScience) to visualize red fluorescence as an indicator of cell viability. Cells were seeded on a 96-well ultra-low attachment plate and allowed to form spheroids overnight. Drug treatment was added as indicated along with Cytotox Green Reagent (Essen BioScience), used as a green fluorescence indicator of cell death due to loss of cell membrane integrity. To monitor cell proliferation and apoptosis over time, the plate was placed in the IncuCyte S3 Live Cell Imaging System (Essen BioScience) and images were acquired every 2 hours. Data analysis was generated by the IncuCyte software using a red fluorescence mask to accurately measure intensity and area of red fluorescence, indicating spheroid viability and a green fluorescence mask, indicating cell death. Cell cycle analysis.

H358 = test: as above; type: cell-based; details: Homo sapiens, NCI-H358
Protocol: as §1, §2

SW1573 spheroids = test: 3D spheroid assay; type: cell-based
Protocol: (§3) The activation of apoptosis is marked with the increase in green fluorescence intensity.
(§4) To determine the sensitivities of the same cells in 3D, mKate expressing cells were used to generate spheroids. Spheroids were monitored in real time using the IncuCyte live cell imaging system (FIG. 1B).
as §2

H23 spheroids = test: 3D spheroid assay; type: cell-based
Protocol: as §3, §4, §2

H358 spheroids = test: 3D spheroid assay; type: cell-based
Protocol: as §3, §4, §2

SW1573 cells = test: Protein array of global phosphorylation changes; type: cell-based; details: IC50 concentration; 72 hours
Protocol: The phosphorylation changes were analyzed employing the AVM BioMed protein array platform.

H23 cells = test: Zebrafish larvae H23 xenotransplant; type: in vivo; details: 72 h, 12 µM

With C=CC(=O)N1CCN(c2nc(=O)n(-c3c(C)ccnc3C(C)C)c3nc(-c4c(O)cccc4F)c(F)cc23)[C@@H](C)C1 [sotorasib] the inhibition at 10 µM (SW1463) was 40%, the “reduction in tumor area” value (SW1573 NSCLC cells) was “about 52%” and the “induction in expression of WNT2, CFTR and CCL2 (qPCR)” value [1] was “more than 40 fold”. For the same compound, the cell count (H23; H23, 1-3 μM, 24 h, start 9,000, control 15,000) was 12,000, the IC50 (H23; Homo sapiens, NCI-H23, 72 h, H23, 72 hours, Example 6) was 3000 nM and the IC50 (H23; Homo sapiens, NCI-H23, H23, Example 1, FIG. 14C-14D) was 3200 nM. For the same compound, the inhibition at 0.3 µM (H23; Homo sapiens, NCI-H23, H23, 0.3 μM) was about 20%, the inhibition at 10 µM (H23; Homo sapiens, NCI-H23, H23, 72 hours, read-out: inhibition of proliferation / cell growth) was about 80% and the inhibition at 5 µM (H23; Homo sapiens, NCI-H23, H23 parental cells, 5 μM, FIG. 4B, read-out: inhibition of proliferation) was 50%. It also gave an inhibition at 10 µM (H23; Homo sapiens, NCI-H23, H23 parental cells, FIG. 4B, read-out: inhibition of proliferation) of 70%, an IC50 (H358) of 63 nM and an inhibition at 0.61 µM (H358; H358, 0.61 μM) of about 60%. For the same compound, the IC50 (H358; H358, 72 hours, Example 6, read-out: IC50, cell proliferation) was 130 nM, the IC50 (H358; H358, Example 1, FIG. 14C-14D, read-out: IC50, cell proliferation) was 800 nM and the inhibition at 0.3 µM (SW1573 spheroids; Homo sapiens, SW1573, 0.3 μM, read-out: inhibition of spheroid area) was 30%. The inhibition at 10 µM (SW1573 spheroids; Homo sapiens, SW1573, 10 μM, read-out: inhibition of spheroid area / reduction in spheroid growth) was about 40%, the IC50 (SW1573 spheroids; Homo sapiens, SW1573 spheroid, read-out: IC50 in cell line derived spheroid) was 12600 nM and the “spheroid red intensity dropped to” value (SW1573 spheroids; SW1573, 10 μM) was 70%. For the same compound, the “drop in spheroid red intensity” value (H23 spheroids; H23, 0.3 μM) was “about 40%”, the inhibition at 0.3 µM (H23 spheroids; H23, 0.3 μM, read-out: inhibition of spheroid area) was 70% and the “spheroid red intensity dropped to” value (H23 spheroids; H23, 10 μM) was 80%. For the same compound, the IC50 (H23 spheroids; H23 spheroid, read-out: IC50 in cell line derived spheroid) was 12300 nM, the “drop in spheroid red intensity” value (H358 spheroids; H358, 0.3 μM) was “about 80%” and the inhibition at 0.3 µM (H358 spheroids; Homo sapiens, NCI-H358, H358, 0.3 μM, read-out: inhibition of spheroid area) was 90%. For the same compound, the IC50 (H358 spheroids; Homo sapiens, NCI-H358, H358 spheroid, read-out: IC50 in cell line derived spheroid) was 2.2 nM, the “number of proteins with phosphorylation changes unique to the treatment” value (SW1573 cells) was 1482 proteins and the “number of proteins with significant phosphorylation changes” value (SW1573 cells) was 1764 proteins. The “reduction of tumor growth (median)” value (H23 cells) was “about 80%”.
